The text below walks through data of PubChem BioAssay AID248 (DTP/NCI, 2004).

Each structure is given as a SMILES string. “And” between values parts separate entries of the source, which are not always exact repeats. Equal values may be shown once. Inconclusive results and toxic doses are left out.

This assay concerns L1210 leukemia ip in BDF1 mice, survival T/C. Put plainly: NCI In Vivo Anticancer Drug Screen. Data for tumor model L1210 Leukemia (intraperitoneal) in B6D2F1 (BDF1) mice. The note with it: endpoint: mean survival time, higher = longer survival. In a few lines:
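Survival endpoint. Drug-treated group vs vehicle group, expressed as T divided by C. Tumor passaged by transplantation.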

[1] abbreviates: dose: 100.0 mg/kg/injection, schedule: Q04DX003 (ip), vehicle: saline.
Setting [2] is: dose: 200.0 mg/kg/injection, schedule: Q04DX003 (ip), vehicle: saline.
The mark [3] stands for this setting: dose: 12.5 mg/kg/injection, schedule: Q04DX003 (ip), vehicle: saline.
[4] abbreviates: dose: 25.0 mg/kg/injection, schedule: Q04DX003 (ip), vehicle: saline.
Where [5] appears, read: dose: 50.0 mg/kg/injection, schedule: Q04DX003 (ip), vehicle: saline.

`CCCOP(=S)(N1CC1(C)C)N1CC1(C)C` (stereo not drawn): the T/C (dose: 3.0 mg/kg/injection, schedule: Q01DX015 (ip), vehicle: carboxymethylcellulose (CMC)) was 112 % of control; the T/C (dose: 6.0 mg/kg/injection, schedule: Q01DX015 (ip), vehicle: carboxymethylcellulose (CMC)) was 105 % of control; the T/C (dose: 12.0 mg/kg/injection, schedule: Q01DX015 (ip), vehicle: carboxymethylcellulose (CMC)) was 106 % of control; the T/C (dose: 25.0 mg/kg/injection, schedule: Q01DX015 (ip), vehicle: carboxymethylcellulose (CMC)) was 110 % of control; the T/C (dose: 44.0 mg/kg/injection, schedule: Q01DX Z (ip), vehicle: carboxymethylcellulose (CMC)) was 103 % of control; the T/C (dose: 50.0 mg/kg/injection, schedule: Q01DX015 (ip), vehicle: carboxymethylcellulose (CMC)) is 115 % of control. Besides, the T/C runs as follows: (dose: 67.0 mg/kg/injection, schedule: Q01DX Z (ip), vehicle: carboxymethylcellulose (CMC)) 113 % of control; (dose: 100.0 mg/kg/injection, schedule: Q01DX015 (ip), vehicle: carboxymethylcellulose (CMC)) 151 % of control; (dose: 100.0 mg/kg/injection, schedule: Q01DX Z (ip), vehicle: carboxymethylcellulose (CMC)) 111 % of control; (dose: 150.0 mg/kg/injection, schedule: Q01DX Z (ip), vehicle: carboxymethylcellulose (CMC)) 122 % of control.
Regarding `COc1cc(C(=O)Nc2ccc(C3=NCCN3)cc2)cc(C(=O)Nc2ccc(C3=NCCN3)cc2)c1`, the T/C was 211 % of control (dose: 30.0 mg/kg/injection, schedule: Q01DX Z (ip), vehicle: saline); 275 % of control (dose: 60.0 mg/kg/injection, schedule: Q01DX Z (ip), vehicle: saline); 114 % of control (dose: 60.0 mg/kg/injection, schedule: Q01DX Z (oral), vehicle: saline); 151 % of control (dose: 120.0 mg/kg/injection, schedule: Q01DX Z (ip), vehicle: saline); 119 % of control (dose: 120.0 mg/kg/injection, schedule: Q01DX Z (oral), vehicle: saline); 101 % of control (dose: 240.0 mg/kg/injection, schedule: Q01DX Z (oral), vehicle: saline). Also, the T/C (dose: 480.0 mg/kg/injection, schedule: Q01DX Z (oral), vehicle: saline) is 100 % of control.
Regarding `[B-][NH2+]CC[NH2+][B-]`, under “dose: 400.0 mg/kg/injection, schedule: Q01DX001 (ip), vehicle: saline”, the T/C is 117 % of control.
`CN1CCCCCC(=N\O)/C(=N/O)CCCCC1`: the T/C runs as follows: (dose: 50.0 mg/kg/injection, schedule: Q01DX001 (ip), vehicle: saline) 101 % of control; (dose: 100.0 mg/kg/injection, schedule: Q01DX001 (ip), vehicle: saline) 103 % of control; (dose: 200.0 mg/kg/injection, schedule: Q01DX001 (ip), vehicle: saline) 100 % of control.
On to `CCCNC(=O)/C=C/C(=O)NCCC`, for which the T/C under setting [1] was 100 % of control; the T/C under setting [2] was 100 % of control; the T/C (dose: 400.0 mg/kg/injection, schedule: Q04DX003 (ip), vehicle: saline) is 100 % of control.
Regarding `NC(=O)c1c(CC(=O)O)nn(-c2ccccc2)c1N`, the T/C is 94 % of control (dose: 50.0 mg/kg/injection, schedule: Q01DX009 (ip), vehicle: Klucel (hydroxypropylcellulose) (HPC)); 98 % of control (dose: 100.0 mg/kg/injection, schedule: Q01DX009 (ip), vehicle: Klucel (hydroxypropylcellulose) (HPC)); 102 % of control (dose: 200.0 mg/kg/injection, schedule: Q01DX009 (ip), vehicle: Klucel (hydroxypropylcellulose) (HPC)).
Turning to `CC(=O)CCC(C#N)c1ccccc1` (stereo not drawn), the T/C (dose: 25.0 mg/kg/injection, schedule: Q04DX002 (ip), vehicle: saline) was 104 % of control; the T/C (dose: 50.0 mg/kg/injection, schedule: Q04DX002 (ip), vehicle: saline) is 107 % of control; the T/C (dose: 100.0 mg/kg/injection, schedule: Q04DX002 (ip), vehicle: saline) was 93 % of control and 111 % of control.
`CC(=O)NCC1(c2ccccc2)CCN(CCCC(=O)c2ccc(F)cc2)CC1`: the T/C is, setting by setting: (dose: 1.56 mg/kg/injection, schedule: Q03HX024 (ip), vehicle: saline) 94 % of control; (dose: 3.12 mg/kg/injection, schedule: Q03HX024 (ip), vehicle: saline) 98 % of control; (dose: 4.1 mg/kg/injection, schedule: Q01DX009 (ip), vehicle: saline) 96 % of control; (dose: 6.25 mg/kg/injection, schedule: Q01DX009 (ip), vehicle: saline) 98 % of control; (dose: 8.2 mg/kg/injection, schedule: Q01DX009 (ip), vehicle: saline) 96 % of control; (dose: 12.5 mg/kg/injection, schedule: Q01DX009 (ip), vehicle: saline) 102 % of control. Further, the T/C was 100 % of control under setting [3]; 89 % of control (dose: 16.5 mg/kg/injection, schedule: Q01DX009 (ip), vehicle: saline); 100 % of control (dose: 18.75 mg/kg/injection, schedule: Q01DX001 (ip), vehicle: saline); 96 % of control (dose: 25.0 mg/kg/injection, schedule: Q01DX009 (ip), vehicle: saline); 86 % of control (dose: 25.0 mg/kg/injection, schedule: Q03HX024 (ip), vehicle: saline); 100 % of control and 101 % of control (2×) under setting [4]. The T/C reads like this: (dose: 33.0 mg/kg/injection, schedule: Q01DX009 (ip), vehicle: saline) 86 % of control; (dose: 37.5 mg/kg/injection, schedule: Q01DX001 (ip), vehicle: saline) 96 % of control; (dose: 50.0 mg/kg/injection, schedule: Q01DX009 (ip), vehicle: saline) 109 % of control; under setting [5], 101 % of control and 108 % of control and 118 % of control; (dose: 66.0 mg/kg/injection, schedule: Q01DX009 (ip), vehicle: saline) 91 % of control; (dose: 75.0 mg/kg/injection, schedule: Q01DX001 (ip), vehicle: saline) 96 % of control. The T/C was 107 % of control (dose: 100.0 mg/kg/injection, schedule: Q01DX009 (ip), vehicle: saline); 103 % of control under setting [1]; 91 % of control (dose: 150.0 mg/kg/injection, schedule: Q01DX001 (ip), vehicle: saline); 113 % of control under setting [2].
Regarding `CCOC(=O)CC(c1cccc2ccccc12)c1cccc2ccc3ccccc3c12` (stereo not drawn), the T/C was 92 % of control (dose: 100.0 mg/kg/injection, schedule: Q04DX003 (ip), vehicle: Klucel (hydroxypropylcellulose) (HPC)); 86 % of control (dose: 200.0 mg/kg/injection, schedule: Q04DX003 (ip), vehicle: Klucel (hydroxypropylcellulose) (HPC)); 91 % of control (dose: 400.0 mg/kg/injection, schedule: Q04DX003 (ip), vehicle: Klucel (hydroxypropylcellulose) (HPC)).
Consider `CCC1c2ccc3cc(OC)ccc3c2C(=O)CC1C(=O)O` (stereo not drawn), for which the T/C runs as follows: (dose: 100.0 mg/kg/injection, schedule: Q01DX009 (sc), vehicle: steriod suspending solution) 102 % of control; (dose: 100.0 mg/kg/injection, schedule: Q04DX003 (sc), vehicle: steriod suspending solution) 104 % of control; (dose: 200.0 mg/kg/injection, schedule: Q01DX009 (sc), vehicle: steriod suspending solution) 96 % of control; (dose: 200.0 mg/kg/injection, schedule: Q04DX003 (sc), vehicle: steriod suspending solution) 98 % of control; (dose: 400.0 mg/kg/injection, schedule: Q01DX009 (sc), vehicle: steriod suspending solution) 106 % of control; (dose: 400.0 mg/kg/injection, schedule: Q04DX003 (sc), vehicle: steriod suspending solution) 105 % of control.
As for `CCCCCCCCCCCCCCCCCCO`, the T/C by setting is: (dose: 100.0 mg/kg/injection, schedule: Q01DX009 (ip), vehicle: saline with Tween-80) 99 % of control; (dose: 200.0 mg/kg/injection, schedule: Q01DX009 (ip), vehicle: saline with Tween-80) 92 % of control; (dose: 400.0 mg/kg/injection, schedule: Q01DX009 (ip), vehicle: saline with Tween-80) 87 % of control.
Turning to `CCN(C)CCC(CN)(CCN(C)CC)c1cccc2ccccc12`, the T/C is, setting by setting: under setting [3], 93 % of control; under setting [4], 101 % of control; under setting [5], 93 % of control.
With `COc1cc2c(cc1OC)C(Cc1ccc(N)cc1)N(C)CC2` (stereo not drawn), the T/C is, setting by setting: (dose: 10.0 mg/kg/injection, schedule: Q01DX001 (ip), vehicle: saline) 87 % of control; (dose: 20.0 mg/kg/injection, schedule: Q01DX001 (ip), vehicle: saline) 91 % of control; (dose: 40.0 mg/kg/injection, schedule: Q01DX001 (ip), vehicle: saline) 94 % of control; (dose: 80.0 mg/kg/injection, schedule: Q01DX001 (ip), vehicle: saline) 98 % of control.
For the molecule `CN(N(P(c1ccccc1)c1ccccc1)P(c1ccccc1)c1ccccc1)P(c1ccccc1)c1ccccc1`, the T/C runs as follows: (dose: 100.0 mg/kg/injection, schedule: Q01DX001 (ip), vehicle: steriod suspending solution) 110 % of control; (dose: 400.0 mg/kg/injection, schedule: Q01DX001 (ip), vehicle: steriod suspending solution) 94 % of control.
